# According to patent US5994334A, “Androgen synthesis inhibitors” (priority 1997, dated 1999):
# pIC50, pKi: −log10 of the molar value. “Also recorded” adds a separate entry of the source. Where two headings read alike, the source gives them in different places.
# Columns and labels:
# [1] = target: 17α-hydroxylase/C17,20-lyase; details: read-out: Ki (literature); cited from earlier work
# [2] = target: T1, human 17α-hydroxylase/C17,20-lyase (Homo sapiens, UniProt P05093); assay: Inhibition of human testicular 17α-hydroxylase/C17,20-lyase (enzyme complex as a whole); assay type: biochemical; details: for inhibition of 17α-hydroxylase/C17,20-lyase (in words): NI = no inhibition; for times more potent than ketoconazole: vs ketoconazole
# T1 construct: incubating human testicular microsomes; from tissue; host or cells: human testis, microsomes
# T1 sequence (P05093 1-508): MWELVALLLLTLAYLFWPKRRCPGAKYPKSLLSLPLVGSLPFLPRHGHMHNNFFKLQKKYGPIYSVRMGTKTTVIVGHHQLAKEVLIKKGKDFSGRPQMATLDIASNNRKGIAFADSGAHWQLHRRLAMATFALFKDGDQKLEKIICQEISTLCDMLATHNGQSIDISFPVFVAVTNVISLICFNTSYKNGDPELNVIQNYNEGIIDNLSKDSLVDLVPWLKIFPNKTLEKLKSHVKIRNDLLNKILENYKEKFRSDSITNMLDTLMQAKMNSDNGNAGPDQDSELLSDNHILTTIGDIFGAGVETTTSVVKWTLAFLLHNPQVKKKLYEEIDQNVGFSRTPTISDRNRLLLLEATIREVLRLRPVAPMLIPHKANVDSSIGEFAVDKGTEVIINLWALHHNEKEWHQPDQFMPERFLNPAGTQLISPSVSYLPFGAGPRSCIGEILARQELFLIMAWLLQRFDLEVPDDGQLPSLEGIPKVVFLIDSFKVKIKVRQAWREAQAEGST
# Procedure, shortened: (§1)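 Human testicular microsomes were incubated with radiolabeled pregnenolone and a range of test compound concentrations. Substrate, 17α-hydroxypregnenolone and DHEA were separated and quantified by reverse-phase HPLC. Hydroxylase activity came from total conversion to 17α-hydroxypregnenolone plus DHEA; lyase activity from conversion to DHEA alone.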
# [3] = test system: LNCaP human prostatic cancer cell line; assay: Androgen-dependent growth of LNCaP cells; details: for reversal of DHT-stimulated LNCaP growth (in words) / reversal of DHT-stimulated LNCaP growth at 5 μM (in words): 0.03 nM DHT; for stimulation of LNCaP cell proliferation (in words): hydroxyflutamide 0.3-1 μM; for reversal of testosterone-stimulated LNCaP growth (in words): inhibitor 0.3-5 μM, 9 days
# Method: The ability of various inhibitors to reverse the stimulatory effect of testosterone on the growth of the LNCaP human prostatic cancer cell line was tested by comparing cell number in wells treated for 9 days with either drug vehicle only (control), 0.1 nM testosterone only, or 0.1 nM testosterone with inhibitor at 0.3, 1, 2.5, or 5 μM.
# [4] = test system: human prostatic tissue (BPH or prostate cancer); assay: Prostate tissue in histoculture, DNA synthesis ([3H]-thymidine uptake); details: for inhibition of testosterone-stimulated DNA synthesis (in words), 0.3 μM: inhibitor 0.3 μM; for reversal of testosterone-stimulated DNA synthesis (in words), 1 μM: testosterone 1 μM, FIG. 1
# Method: We recently developed a histoculture method to evaluate the growth inhibiting properties of the compounds on human prostatic tissue. […] The tissue samples were then incubated for 3 days in fresh medium/treatment containing 2 μCi/ml [^3 H]-thymidine. Tissue was then digested and DNA extracted. For each sample, [^3 H]-thymidine uptake was normalized to DNA content. […] This finding is consistent with the compound acting as an antiandrogen. None of the compounds produced an independent effect on DNA synthesis in the absence of added androgens.
# [5] = target: T2, Human Prostatic 5α-Reductase (Homo sapiens, UniProt P31213); assay: Inhibition of human prostatic 5α-reductase (prostatic microsomes, [3H]testosterone); details: for pIC50: IC50 5α-reductase; for inhibition at 0.01 µM: read-out: % Inhibition of 5α-reductase, [I] 10 nM; for inhibition at 0.1 µM: read-out: % Inhibition of 5α-reductase, [I] 100 nM
# T2 sequence (P31213 1-254): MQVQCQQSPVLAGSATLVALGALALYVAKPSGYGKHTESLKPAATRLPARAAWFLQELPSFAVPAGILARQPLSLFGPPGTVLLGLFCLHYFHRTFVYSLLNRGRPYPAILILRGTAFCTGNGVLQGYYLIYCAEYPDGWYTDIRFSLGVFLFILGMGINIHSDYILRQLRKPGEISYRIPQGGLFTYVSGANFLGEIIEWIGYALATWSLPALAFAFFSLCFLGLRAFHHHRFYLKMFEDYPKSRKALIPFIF
# [6] = target: T3, Human Testicular 17α-Hydroxylase (Homo sapiens, UniProt P05093); assay: Inhibition of human testicular 17α-hydroxylase (pregnenolone substrate, testicular microsomes); assay type: biochemical
# T3 construct: incubating human testicular microsomes; from tissue; host or cells: human testis, microsomes
# T3 sequence (P05093 1-508): T1 sequence (P05093 1-508)
# Procedure, shortened: as §1
# [7] = target: T4, Human Testicular C17,20-lyase (Homo sapiens, UniProt P05093); assay: Inhibition of human testicular C17,20-lyase (pregnenolone substrate, testicular microsomes); assay type: biochemical
# T4 construct: incubating human testicular microsomes; from tissue; host or cells: human testis, microsomes
# T4 sequence (P05093 1-508): T1 sequence (P05093 1-508)
# Procedure, shortened: as §1
# [8] = test system: adrenal 17α-hydroxylase/C17,20-lyase; assay: Inhibition of adrenal 17α-hydroxylase/C17,20-lyase; assay type: biochemical; details: guinea pig adrenal
# [9] = test system: LNCaP human prostatic tumors; assay: Human prostatic cancer (LNCaP) xenograft in male nude mice; assay type: in vivo, human (LNCaP) tumors in BALB/c male athymic mice; details: five weeks; for total tumor volume (% of initial volume), 5 weeks: 4 mice per group, control 884.0%, FIG. 2; for mean tumor weight, 5-week experiment: control 1310.5±1125.9 mg, I-49 p<0.05 vs control
# Method: We have reported that inoculation of MCF-7 breast cancer cells in Matrigel increases mammary tumor formation in nude mice (Yue et al., 1994). The same procedure was therefore utilized to develop tumors from human prostatic cancer cells (LNCAP) in male nude mice. BALB/c male athymic mice, 4-6 weeks old, were inoculated sc with LNCaP cells suspended in Matrigel (10 mg/ml). Four sites per mouse were injected with 1.8×10^6 cells in 0.1 ml Matrigel. Treatment began when the tumor reached about 100 mm^3 in volume. Tumors were measured before the treatment began and once a week during treatment. Tumor volume was calculated by the formula 4/3πr1^2 r2 (r1 <r2).At the end of treatment, the mice were sacrificed and individual tumors were weighed. The latency of tumor development was 30-40 days and overall tumorigenicity was 82%.
# In a further experiment, two mice were treated with I-16 (1 mg/mouse/day, s.c.) beginning 45 days after cell inoculation. Two mice received vehicle as controls. […] The mean tumor weight was 198.78±72 mg in I-16 treated mice compared to 386.3±147.2 mg in the control group. In other experiments, I-47 and I-49 were effective in controlling tumor growth. The total tumor volume of the control mice increased to 884.0% of the initial volume.
# adrenal 17α-hydroxylase = assay: Inhibition of adrenal 17α-hydroxylase; assay type: biochemical; details: guinea pig adrenal
# Method: (§2) These studies were carried out using guinea pig adrenals. In contrast to the rat, the guinea pig synthesizes cortisol, like the human. […] I-5 and I-7 were of interest, as they had relatively little (4%) or no effect on the adrenal 17α-hydroxylase required for cortisol synthesis but had moderately strong effects on the C17,20 -lyase causing reduction in adrenal androgen synthesis (77% and 63%, respectively).
# adrenal C17,20-lyase = assay: Inhibition of adrenal C17,20-lyase; assay type: biochemical; details: guinea pig adrenal
# Method: as §2
# [10] = target: human androgen receptor (AR) (Homo sapiens, UniProt P10275); assay: Androgen receptor-mediated gene transcription, wild-type AR (luciferase, CV1 cells); assay type: cell-based; details: against DHT stimulation
# [11] = test system: mutant AR which is expressed in LNCaP cells; assay: Androgen receptor-mediated gene transcription, mutant AR of LNCaP cells (luciferase, CV1 cells); assay type: cell-based, human
# [12] = Table 1, NI = no inhibition, read-out: IC50 17α-OHase
# [13] = Table 3, first figure of 17α-hydroxylase/lyase pair, read-out: IC50 17α-hydroxylase
# [14] = first figure of pair, read-out: IC50 17α-hydroxylase
# [15] = Table 1, NI = no inhibition, CI = complete inhibition, read-out: IC50 C17,20 lyase
# [16] = second figure of pair, read-out: IC50 C17,20-lyase
# human androgen receptor (AR), sequence (P10275 whole entry): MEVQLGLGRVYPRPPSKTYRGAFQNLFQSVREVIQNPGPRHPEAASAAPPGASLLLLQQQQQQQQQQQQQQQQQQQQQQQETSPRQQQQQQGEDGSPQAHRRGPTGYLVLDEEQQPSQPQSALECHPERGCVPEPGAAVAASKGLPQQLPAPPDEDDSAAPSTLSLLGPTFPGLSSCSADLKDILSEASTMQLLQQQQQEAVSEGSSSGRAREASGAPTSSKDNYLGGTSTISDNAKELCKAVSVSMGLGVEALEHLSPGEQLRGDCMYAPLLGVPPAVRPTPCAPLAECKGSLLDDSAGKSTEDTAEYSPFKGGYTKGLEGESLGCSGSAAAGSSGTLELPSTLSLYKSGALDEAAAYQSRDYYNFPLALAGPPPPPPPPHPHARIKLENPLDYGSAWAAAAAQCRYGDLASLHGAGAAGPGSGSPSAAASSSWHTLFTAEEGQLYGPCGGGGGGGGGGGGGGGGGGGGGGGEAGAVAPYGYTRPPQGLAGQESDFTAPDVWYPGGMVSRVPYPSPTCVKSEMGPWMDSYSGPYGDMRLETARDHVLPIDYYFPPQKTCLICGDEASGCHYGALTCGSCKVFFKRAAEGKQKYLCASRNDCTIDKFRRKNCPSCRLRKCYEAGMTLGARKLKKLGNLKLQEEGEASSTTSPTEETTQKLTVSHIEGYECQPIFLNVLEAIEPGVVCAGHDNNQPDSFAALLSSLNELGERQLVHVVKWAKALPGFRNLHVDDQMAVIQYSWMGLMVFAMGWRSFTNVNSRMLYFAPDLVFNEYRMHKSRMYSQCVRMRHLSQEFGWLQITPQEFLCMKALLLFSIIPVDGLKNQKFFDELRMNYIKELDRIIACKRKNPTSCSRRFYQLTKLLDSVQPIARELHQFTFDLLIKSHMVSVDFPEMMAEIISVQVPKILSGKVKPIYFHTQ
smiles,measurement,setting,value
C[C@]12CC[C@H]3[C@@H](CC=C4C[C@@H](O)CC[C@@]43C)[C@@H]1CC[C@@H]2NC1CC1 [17β-(cyclopropylamino)androst-5ene-3-ol],pKi,[1],7.05
C[C@@H](O)[C@H]1CC[C@H]2[C@@H]3CCC4=CC(=O)CC[C@]4(C)[C@H]3CC[C@]12C [Compound I-34],"inhibition of 17α-hydroxylase/C17,20-lyase (in words)",[2],potent inhibition
same,reversal of DHT-stimulated LNCaP growth (in words),[3],stimulation of growth above the level produced by DHT
same,stimulation of LNCaP cell proliferation (in words),[3]; 0.1 nM testosterone,stimulated cell proliferation
same,"inhibition of testosterone-stimulated DNA synthesis (in words), 0.3 μM",[4],partially effective
same,"reversal of testosterone-stimulated DNA synthesis (in words), 1 μM",[4]; inhibitor 1 μM,almost complete reversal
same,pIC50,[5],7.05
same,pIC50,[5]; Table 2,7.05
same,inhibition at 0.01 µM,[5],16.1%
same,inhibition at 0.1 µM,[5],64.5%
"C[C@]12CC[C@H](O)CC1=CC[C@@H]1[C@@H]2CC[C@]2(C)C(c3c[nH]cn3)=CC[C@@H]12 [Compound I-49, 17β-(4'-imidazolyl)-androsta-5,16-dien-3β-ol]",pIC50,[6]; [12],8.10
same,pIC50,[6]; [13],8.05
same,pIC50,[6]; [14],8.40
same,pIC50,[7]; [15],8.05
same,pIC50,[7]; [16],8.40
same,"inhibition of 17α-hydroxylase/C17,20-lyase (in words)",[2],potent inhibitors
same,"fold increase of inhibition by 16,17 double bond",[2]; vs I-47,2 fold
same,times more potent than ketoconazole,[2],10-50 times
same,effect on adrenal enzyme (in words),[8],very little effect
same,reversal of DHT-stimulated LNCaP growth (in words),[3],dose-dependent reversal
same,reversal of DHT-stimulated LNCaP growth at 5 μM (in words),[3]; inhibitor 5 μM,nearly complete reversal
same,reversal of testosterone-stimulated LNCaP growth (in words),[3]; 0.1 nM testosterone,dose-dependent reversal
same,"reversal of testosterone-stimulated DNA synthesis (in words), 1 μM",[4]; inhibitor 1 μM,partially effective
same,"total tumor volume (% of initial volume), 5 weeks",[9],315.3%
same,"mean tumor weight, 5-week experiment",[9],255.9 ± 176.9 mg
same,inhibition at 0.1 µM,[5],26.3%
"CC(=NO)C1=CC[C@H]2[C@@H]3CC=C4C[C@@H](O)CC[C@]4(C)[C@H]3CC[C@]12C [Compound I-5, 16-dehydropregnenolone-20-oxime]",pIC50,[6]; IC50 17α-OHase,7.80
same,pIC50,"[7]; IC50 C17,20 lyase",7.80
same,"inhibition of 17α-hydroxylase/C17,20-lyase (in words)",[2],potent inhibition
same,fold more potent inhibition than 20-oxime (I-1),[2]; vs I-1,35 fold
same,effect on adrenal 17α-hydroxylase,adrenal 17α-hydroxylase; 17α-hydroxylase required for cortisol synthesis,4%
same,"reduction in adrenal androgen synthesis (C17,20-lyase)","adrenal C17,20-lyase",77%
same,inhibition at 0.01 µM,[5],0%
same,inhibition at 0.1 µM,[5],5.92%
C[C@]12CC[C@H]3[C@@H](CC=C4C[C@@H](O)CC[C@@]43C)[C@@H]1CC[C@@H]2[C@]1(C)CO1 [Compound I-7],pIC50,[7]; [15],6.14
same,effect on adrenal 17α-hydroxylase (in words),adrenal 17α-hydroxylase,no effect
same,"reduction in adrenal androgen synthesis (C17,20-lyase)","adrenal C17,20-lyase",63%
same,inhibition at 0.01 µM,[5],13.6%
same,inhibition at 0.1 µM,[5],12.1%
C[C@H](O)[C@H]1CC[C@H]2[C@@H]3CCC4=CC(=O)CC[C@]4(C)[C@H]3CC[C@]12C [Compound I-33],pIC50,[6]; IC50 17α-OHase,5.55
same,pIC50,"[7]; IC50 C17,20 lyase",5.84
same,stimulation of LNCaP cell proliferation (in words),[3]; 0.1 nM testosterone,stimulated cell proliferation
same,"inhibition of testosterone-stimulated DNA synthesis (in words), 0.3 μM",[4],highly effective
same,"reversal of testosterone-stimulated DNA synthesis (in words), 1 μM",[4]; inhibitor 1 μM,almost complete reversal
same,pIC50,[5],7.89
same,pIC50,[5]; Table 2,7.89
same,inhibition at 0.01 µM,[5],28.5%
same,inhibition at 0.1 µM,[5],87.6%
"C[C@]12CC[C@H]3[C@@H](CC=C4C[C@@H](O)CC[C@@]43C)[C@@H]1CC[C@@H]2c1c[nH]cn1 [Compound I-47, 17β-(4'-imidazolyl)-androst-5-en-3β-ol]",pIC50,[6]; [12],7.60
same,pIC50,[6]; [13],7.60
same,pIC50,[6]; [14],7.96
same,pIC50,[7]; [15],7.64
same,pIC50,"[7]; Table 3, second figure of pair, CI = complete inhibition, read-out: IC50 lyase",7.65
same,pIC50,[7]; [16],8.15
same,"inhibition of 17α-hydroxylase/C17,20-lyase (in words)",[2],potent inhibitors
same,times more potent than ketoconazole,[2],10-50 times
same,effect on adrenal enzyme (in words),[8],very little effect
same,antagonism of wild-type AR (in words),[10],dose-dependent antagonism
same,agonism/antagonism at mutant AR of LNCaP cells (in words),[11],antagonist; also recorded: not an agonist of the mutant receptor
same,reversal of DHT-stimulated LNCaP growth (in words),[3],dose-dependent reversal
same,reversal of DHT-stimulated LNCaP growth at 5 μM (in words),[3]; inhibitor 5 μM,nearly complete reversal
same,reversal of testosterone-stimulated LNCaP growth at 5 μM (in words),"[3]; 0.1 nM testosterone, inhibitor 5 μM",almost completely reversed
same,reversal of testosterone-stimulated LNCaP growth (in words),[3]; 0.1 nM testosterone,dose-dependent reversal
same,pIC50,"[3]; Homo sapiens, LNCaP, 216 h, read-out: concentration reducing the stimulatory effect of testosterone by 50%",≥ 6.00
same,"reversal of DHT-stimulated DNA synthesis (in words), 1 μM","[4]; inhibitor 1 μM, DHT 10 nM",almost completely reversed
same,"reversal of testosterone-stimulated DNA synthesis (in words), 1 μM",[4]; inhibitor 1 μM,almost complete reversal
same,"total tumor volume (% of initial volume), 5 weeks",[9],525.8%
same,"mean tumor weight, 5-week experiment",[9],607.0 ± 142.4 mg
